Results taken from patent US10058525B2, “Application of chlorogenic acid in preparing medicines for treating lupus erythematosus” (SICHUAN JIUZHANG BIOLOGICAL SCIENCE AND TECHNOLOGY CO., LTD., priority 2015, dated 2018).
“Also recorded” adds a separate entry of the source.

How the values were obtained:
[1] = system: lupus erythematosus; assay: Screening medicines for treatment of lupus erythematosus; conditions: screening of extracts and potency constituents; no method given
[2] = system: lupus erythematosus model mice (renal glomerular capsule wall epithelial cells); assay: Electron microscope observation of kidney samples, lupus model mice; format: in vivo, BALB/c mice; conditions: 21 days
Protocol: The back of mice was shaved and acutely exposed to Ultraviolet of 2 h/d*3 d, with a distance of 30 cm. After exposure to UV, 2.5 mg/kg of LPS was administrated once by ip, and after 24 h, the model was successfully established; the mice in the normal control group received normal saline via ip. 24 h after injection of LPS (ip), medicines were given to the model mice by intragastric administration. Chlorogenic acid test groups received high, middle, and low doses of medicines, by intragastric administration at a respective dosage of 10 mg/kg*d, 20 mg/kg*d, and 40 mg/kg*d. The positive control group A received 2 mg/kg*d of artesunate by stomach perfusion, while the positive control group B received 1 mg/kg*d of prednisone by stomach perfusion. Mice in the model and normal control group all received 0.4 ml/mouse normal saline by gavage. After 15 days of administration, animals in each group were taken blood by separating eyeballs on days 14, 21, 28, and after cultured in water bath at 37° C. for 1 h, the blood sample was centrifugated at 2000 r/min for 5 min, to draw serum for use. On day 21, after blood collection, animals were sacrificed by dislocation, followed by collection of liver and kidney, and they were placed in fixative solutions of electron microscope and light microscrope, respectively. On day 21, the sample used for observation under electron microscope was fixed in mixed stationary solution of 2% paraformaldehyde+0.25% glutaral for 4 h, rinsed with TBS, treated with 1% osmic acid, followed by fixation for 1 h, rinsed with buffer solution, dehydrated with acetone, dyed with uranyl acetate for 2 h, macerated in Epon812 and embedded, and cut into slices with LEICA ultramicrotome. The slices were stained with lead solution, and the sample was observed under transmission electron microscope when it was dry.

[3] = system: ANA; assay: Serologic detection of ANA by immunofluorescence on HEp-2 cell sheets, serum of UV + LPS lupus model mice; format: in vivo, BALB/c mice; parameters: key: (+): positive; (−): negative; (++++): intense fluorescence; (+++): stronger fluorescence; (++): weeker fluorescence; conditions: intragastric
Protocol: The back of mice was shaved and acutely exposed to Ultraviolet of 2 h/d*3 d, with a distance of 30 cm. After exposure to UV, 2.5 mg/kg of LPS was administrated once by ip, and after 24 h, the model was successfully established; the mice in the normal control group received normal saline via ip. 24 h after injection of LPS (ip), medicines were given to the model mice by intragastric administration. Chlorogenic acid test groups received high, middle, and low doses of medicines, by intragastric administration at a respective dosage of 10 mg/kg*d, 20 mg/kg*d, and 40 mg/kg*d. The positive control group A received 2 mg/kg*d of artesunate by stomach perfusion, while the positive control group B received 1 mg/kg*d of prednisone by stomach perfusion. Mice in the model and normal control group all received 0.4 ml/mouse normal saline by gavage. After 15 days of administration, animals in each group were taken blood by separating eyeballs on days 14, 21, 28, and after cultured in water bath at 37° C. for 1 h, the blood sample was centrifugated at 2000 r/min for 5 min, to draw serum for use. On day 21, after blood collection, animals were sacrificed by dislocation, followed by collection of liver and kidney, and they were placed in fixative solutions of electron microscope and light microscrope, respectively. Serum of mice was diluted at 1:100 with special buffer solution of Shenzhen Hengjia, and then 200 μL of diluted serum was respectively added to the reactive tank with corresponding number, cultured in the incubator at 37° C. for 30 min, and washed with the buffer solution four times, 2 min for each time; 200 μL of diluted biotin goat anti-mouse IgG (1:100) was added, cultured in the incubator at 37° C. for 30 min, and then washed with the buffer solution four times, 2 min for each time; 100 μL of diluted HRP-avidin (1:100) was added, cultured in the incubator at 37° C. for 30 min, and then washed as mentioned-above; reactive solutions A and B were added till appearance of positive bands, then washed with the buffer solution. Compared with the standard bands of ENA polypeptide antibody spectrum in the same kit, if the positive bands appeared at 28/29,13.5 ku polypeptide; 15,16.5,38 kupolypeptide; 52 kupolypeptide and 47/48,45 kupolypeptide, that can be determined as anti-Sm, anti-Rib, anti-ssA, and anti-ssB positive antibody. Serum was diluted with PBS at 1:40, then 20-30 μL of diluted serum was dropped into the scrobiculus of HEp-2 cell sheets, each cell sheet for each group. In the process of dropping serum, it should be noted that the surface of cell sheet can not be touched. After addition of serum, cell sheet was placed in wet box and kept for 30 min at room temperature (25° C.). After 30 min, the cell sheet was taken out, and serum was carefully washed out with PBS, then carefully washed twice with PBS, 5 min for each time; after washing, the remained PBS was removed by special absorbent paper of […] company (In this process, it should be noted that becoming dry of cell substrates will affect the results). 20-30 μL of diluted (PBS, 1:100) FITC goat anti-mouse IgG was added by dropping, and then incubated in wet box at room temperature for 30 min. After washing with PBS, steps were same to above. The remained PBS was removed by absorbent paper, and 1-2 drops of fluorescent mounting media were added to the cell sheet. The cover glass was mounted, observed under Olympus BH-2 universal microscope, and then photographed.

SMILES: O=C(/C=C/c1ccc(O)c(O)c1)O[C@@H]1C[C@](O)(C(=O)O)C[C@@H](O)[C@H]1O [Chlorogenic acid, 3-O-caffeoylquinic acid]
- inhibition on lupus erythematosus [1]: more obvious inhibition
- proliferative degree of renal glomerular capsule wall epithelial cells ([2]; chlorogenic acid (all dose groups)): somewhat relieved
- proliferative degree of glomerular capsule wall epithelial cells ([2]; high-dose group of chlorogenic acid): somewhat relieves; also recorded: the release degree in high dose group was the most obvious
- ANA ([3]; day 21, chlorogenic acid high dose): (++)
- ANA ([3]; day 21, chlorogenic acid low dose): (+++)
- ANA ([3]; day 21, chlorogenic acid middle dose): (++)
- ANA ([3]; day 28, chlorogenic acid high dose): (++)
- ANA ([3]; day 28, chlorogenic acid low dose): (+++)
- ANA ([3]; day 28, chlorogenic acid middle dose): (++)
